From patent publication US20220133717A1, “RABEXIMOD IN THE TREATMENT OF RHEUMATOID ARTHRITIS” (CYXONE AB, priority 2020, published 2022)
Like-named read-outs stand apart in the source and are kept apart here.

Legend:
healthy male volunteers = test: Phase 1 clinical trial: safety and tolerability of single and multiple oral rising doses; type: in vivo, human
Excerpt: The Phase 1 study assessed the safety, tolerability, pharmacokinetics and pharmacodynamics of single and multiple oral rising doses of Rabeximod (in a capsule formulation) in healthy male volunteers. The study also included an open-label, randomised, two-period crossover part that was designed to investigate the effect of food on the pharmacokinetics of Rabeximod. In total, 87 healthy male subjects were enrolled into the study.

[1] = test system: patients with moderate or severe active rheumatoid arthritis; test: Phase II clinical trial: safety (AEs, physical examinations, vital signs, ECG)
Excerpt: The Phase II study was a randomised, parallel-group, double-blind, dose-ranging, placebo-controlled study of Rabeximod in patients with moderate or severe active RA with an inadequate response to methotrexate.
Safety assessments included AEs, vital signs, weight, physical examination, 12-lead ECG and safety laboratory tests (serum chemistry, haematology and urinalysis).
Safety measurements for this study included AEs, clinical laboratory tests, physical examinations, vital signs and resting 12-lead ECGs.

[2] = Phase II clinical trial: pharmacokinetics of plasma Rabeximod (PK subgroup); type: in vivo, human; settings: for half-life / Tmax / AUC(0-t) / AUC / Cmax: human, plasma, oral
Excerpt: A total of 9 visits occurred over the course of the study (screening, randomisation [Day 0, baseline]. Day 1, and Weeks 2, 4, 6, 8, 12 and 16). The Day 1 visit was included for a subgroup of 36 patients (PK/PD subgroup) who were selected at specified study centres to also participate in the PK/PD aspect of the study. Individual patient duration in the study was approximately 126 days (a 14 day screening period, an 84 day treatment period [12 weeks], and a 28 day [4 week] follow-up period).
In addition to standard efficacy and safety assessments, it was planned that 40 patients in selected study centres would have blood draws at the beginning of the study (Day 1) and at the end of the study (Week 12) to assess the PK of Rabeximod. The actual number of patients who participated in the PK aspect of the study was 36. The ACR20, ACR50 and ACR70 are assessments of RA improvement. The mHAQ is a validated instrument used to assess patient satisfaction in activity of daily living. It was planned to use the Original DAS as the outcome measure, but this was replaced with DAS28 because it is used more frequently in therapeutic studies have been used in many RA studies.
[…] The study drug was to be taken at approximately the same time every morning, starting from Day 1. For the PK/PD subgroup, on the day when the PK/PD sampling was scheduled, study drug was to be taken after the first blood sampling. The study design of the treatment phase was double-blind. All study drug, including placebo, were identical in size, shape, colour and taste, thus allowing double-blind conditions to be maintained. All study personnel and patients remained blinded to the drug treatment assignments. Patients self-administered all doses of study drug end were instructed to return all residual, unused and empty packaging to the clinic at scheduled visits. If dosing compliance was not maintained at between 80% and 120% then the patient was to be withdrawn from the study. Patients in the PK/PD subgroup were to take study drug at the clinic on Day 1 and at Week 12. Compliance was monitored through drug accountability. The Investigator, or designee, maintained an inventory record of study drug received, dispensed, administered and returned to assure the Sponsor that study drug was not dispensed to any person who was not a patient under the terms and conditions set forth in the protocol. Clinically significant protocol deviations were identified based on criteria determined by the project leader to be clinically relevant. Deviations were reported on the CRFs. Additionally, upon completion of the study, certain deviations (e.g., visit window deviations) were identified through the use of SAS® programming.
The PK assessment of Rabeximod was performed in a subgroup of 36 patients during the study.
Concentration-time profiles for plasma Rabeximod following single (Day 1) and repeated administration (Week 12) of Rabeximod were determined.

Cc1cc2nc3c4cc(Cl)ccc4n(CC(=O)NCCN(C)C)c3nc2cc1C [Rabeximod, 9-Chloro-2,3-dimethyl-6-(N,N-dimethylaminoethylamino-2-oxoethyl)-6H-indolo-[2,3-b]quinoxaline]
tolerability (healthy male volunteers; multiple dose of 600 mg loading followed by 100 mg): less well tolerated due to phototoxicity reactions
tolerability (healthy male volunteers; multiple oral doses up to a 200 mg loading dose followed by 50 mg maintenance dose): well tolerated
tolerability (healthy male volunteers; single dose of 600 mg): less well tolerated due to phototoxicity reactions
tolerability (healthy male volunteers; single oral doses up to 400 mg): well tolerated
proportion of patients experiencing study drug-related AEs ([1]; 37.5 mg group (32 patients)): 58.2%
deaths during the study ([1]; 12 weeks treatment, 4 weeks follow-up): No deaths
proportion of patients experiencing study drug-related AEs ([1]; Rabeximod groups pooled (placebo 11.1%)): 34.5%
majority of changes in physical examinations ([1]; all occurred in the Rabeximod group, most reported as AEs): skin abnormalities
relation of skin abnormality events to dose ([1]; majority in 37.5 mg group, then 15 mg, then 6.25 mg): dose response
tolerability ([1]; once daily at 6.25, 15 and 37.5 mg, RA patients taking methotrexate): well-tolerated
changes in vital signs and 12-lead ECGs ([1]; over the course of the study): no notable changes
impact of methotrexate on the kinetics of Rabeximod ([2]; co-administered stable dose of methotrexate): does not appear to have an impact
increase of geometric mean AUC0-τ, AUC0-t and Cmax with dose ([2]; dose range 6.25 to 37.5 mg, with stable dose of methotrexate): approximately dose-proportional
half-life ([2]; 6.25 mg, Week 12, 6.25 mg, read-out: geometric mean apparent terminal half-life (t1/2) (converted)): 81.5 h
half-life ([2]; 15 mg, Week 12, 15 mg, read-out: geometric mean apparent terminal half-life (t1/2) (converted)): 77.1 h
half-life ([2]; 37.5 mg, Week 12, 37.5 mg, read-out: geometric mean apparent terminal half-life (t1/2) (converted)): 111 h
Tmax ([2]; 37.5 mg, single administration at 6.25, 15 and 37.5 mg, across all dose levels, with methotrexate, read-out: Tmax (median estimates)): 5 to 8 h
Tmax ([2]; repeated administration, Week 12, read-out: Tmax (median estimates)): 2 to 4 h
AUC(0-t) ([2]; po, 6.25 mg, Week 12, 6.25 mg once daily, RA patients, with methotrexate, read-out: AUC0-t, Median): 2810 ng·h/mL
half-life ([2]; po, 6.25 mg, Week 12, 6.25 mg once daily, RA patients, with methotrexate, read-out: T1/2 (apparent terminal half-life), Geometric mean (converted)): 81.5 h
half-life ([2]; po, 6.25 mg, Week 12, 6.25 mg once daily, RA patients, with methotrexate, read-out: T1/2 (apparent terminal half-life), Median (converted)): 86.6 h
AUC ([2]; po, 6.35 mg, Day 1 (equivalent to AUC0-t), 6.35 mg, RA patients, with methotrexate, read-out: AUC0-τ, Geometric mean): 112 ng·h/mL
AUC ([2]; po, 6.35 mg, Day 1 (equivalent to AUC0-t), 6.35 mg, RA patients, with methotrexate, read-out: AUC0-τ, Median): 107 ng·h/mL
Cmax ([2]; po, 6.35 mg, Day 1, 6.35 mg, RA patients, with methotrexate, read-out: Cmax, Geometric mean): 7.92 ng/mL
Cmax ([2]; po, 6.35 mg, Day 1, 6.35 mg, RA patients, with methotrexate, read-out: Cmax, Median): 7.05 ng/mL
Tmax ([2]; po, 6.35 mg, Day 1, 6.35 mg, RA patients, with methotrexate, read-out: Tmax, Median): 8.03 h
AUC(0-t) ([2]; po, 6.35 mg, Week 12, 6.35 mg once daily, RA patients, with methotrexate, read-out: AUC0-t, Geometric mean): 2530 ng·h/mL
AUC ([2]; po, 6.35 mg, Week 12, 6.35 mg once daily, RA patients, with methotrexate, read-out: AUC0-τ, Geometric mean): 587 ng·h/mL
AUC ([2]; po, 6.35 mg, Week 12, 6.35 mg once daily, RA patients, with methotrexate, read-out: AUC0-τ, Median): 710 ng·h/mL
Cmax ([2]; po, 6.35 mg, Week 12, 6.35 mg once daily, RA patients, with methotrexate, read-out: Cmax, Geometric mean): 31 ng/mL
Cmax ([2]; po, 6.35 mg, Week 12, 6.35 mg once daily, RA patients, with methotrexate, read-out: Cmax, Median): 37.5 ng/mL
Tmax ([2]; po, 6.35 mg, Week 12, 6.35 mg once daily, RA patients, with methotrexate, read-out: Tmax, Median): 2.17 h
AUC ([2]; po, 15 mg, Day 1 (equivalent to AUC0-t), 15 mg, RA patients, with methotrexate, read-out: AUC0-τ, Geometric mean): 282 ng·h/mL
AUC ([2]; po, 15 mg, Day 1 (equivalent to AUC0-t), 15 mg, RA patients, with methotrexate, read-out: AUC0-τ, Median): 254 ng·h/mL
Cmax ([2]; po, 15 mg, Day 1, 15 mg, RA patients, with methotrexate, read-out: Cmax, Geometric mean): 18.3 ng/mL
Cmax ([2]; po, 15 mg, Day 1, 15 mg, RA patients, with methotrexate, read-out: Cmax, Median): 16 ng/mL
Tmax ([2]; po, 15 mg, Day 1, 15 mg, RA patients, with methotrexate, read-out: Tmax, Median): 6.04 h
AUC(0-t) ([2]; po, 15 mg, Week 12, 15 mg once daily, RA patients, with methotrexate, read-out: AUC0-t, Geometric mean): 4970 ng·h/mL
AUC(0-t) ([2]; po, 15 mg, Week 12, 15 mg once daily, RA patients, with methotrexate, read-out: AUC0-t, Median): 5590 ng·h/mL
AUC ([2]; po, 15 mg, Week 12, 15 mg once daily, RA patients, with methotrexate, read-out: AUC0-τ, Geometric mean): 1530 ng·h/mL
AUC ([2]; po, 15 mg, Week 12, 15 mg once daily, RA patients, with methotrexate, read-out: AUC0-τ, Median): 1480 ng·h/mL
Cmax ([2]; po, 15 mg, Week 12, 15 mg once daily, RA patients, with methotrexate, read-out: Cmax, Geometric mean): 79.7 ng/mL
Cmax ([2]; po, 15 mg, Week 12, 15 mg once daily, RA patients, with methotrexate, read-out: Cmax, Median): 91.6 ng/mL
half-life ([2]; po, 15 mg, Week 12, 15 mg once daily, RA patients, with methotrexate, read-out: T1/2 (apparent terminal half-life), Geometric mean (converted)): 77.1 h
half-life ([2]; po, 15 mg, Week 12, 15 mg once daily, RA patients, with methotrexate, read-out: T1/2 (apparent terminal half-life), Median (converted)): 77.6 h
Tmax ([2]; po, 15 mg, Week 12, 15 mg once daily, RA patients, with methotrexate, read-out: Tmax, Median): 4 h
AUC ([2]; po, 37.5 mg, Day 1 (equivalent to AUC0-t), 37.5 mg, RA patients, with methotrexate, read-out: AUC0-τ, Geometric mean): 689 ng·h/mL
AUC ([2]; po, 37.5 mg, Day 1 (equivalent to AUC0-t), 37.5 mg, RA patients, with methotrexate, read-out: AUC0-τ, Median): 697 ng·h/mL
Cmax ([2]; po, 37.5 mg, Day 1, 37.5 mg, RA patients, with methotrexate, read-out: Cmax, Geometric mean): 41.7 ng/mL
Cmax ([2]; po, 37.5 mg, Day 1, 37.5 mg, RA patients, with methotrexate, read-out: Cmax, Median): 41.8 ng/mL
Tmax ([2]; po, 37.5 mg, Day 1, 37.5 mg, RA patients, with methotrexate, read-out: Tmax, Median): 5.03 h
AUC(0-t) ([2]; po, 37.5 mg, Week 12, 37.5 mg once daily, RA patients, with methotrexate, read-out: AUC0-t, Geometric mean): 15900 ng·h/mL
AUC(0-t) ([2]; po, 37.5 mg, Week 12, 37.5 mg once daily, RA patients, with methotrexate, read-out: AUC0-t, Median): 17500 ng·h/mL
AUC ([2]; po, 37.5 mg, Week 12, 37.5 mg once daily, RA patients, with methotrexate, read-out: AUC0-τ, Geometric mean): 4040 ng·h/mL
AUC ([2]; po, 37.5 mg, Week 12, 37.5 mg once daily, RA patients, with methotrexate, read-out: AUC0-τ, Median): 4540 ng·h/mL
Cmax ([2]; po, 37.5 mg, Week 12, 37.5 mg once daily, RA patients, with methotrexate, read-out: Cmax, Geometric mean): 218 ng/mL
Cmax ([2]; po, 37.5 mg, Week 12, 37.5 mg once daily, RA patients, with methotrexate, read-out: Cmax, Median): 238 ng/mL
half-life ([2]; po, 37.5 mg, Week 12, 37.5 mg once daily, RA patients, with methotrexate, read-out: T1/2 (apparent terminal half-life), Geometric mean (converted)): 111 h
half-life ([2]; po, 37.5 mg, Week 12, 37.5 mg once daily, RA patients, with methotrexate, read-out: T1/2 (apparent terminal half-life), Median (converted)): 107 h
Tmax ([2]; po, 37.5 mg, Week 12, 37.5 mg once daily, RA patients, with methotrexate, read-out: Tmax, Median): 3.99 h
